Laboratory results from patent US7183075B2, “Purified and isolated potassium-chloride cotransporter nucleic acids and polypeptides and therapeutic and screening methods using same” (Vanderbilt University, priority 2000, dated 2007).
Read-outs that look alike come from different tables or passages of the source.

Target: T1, xKCC (Xenopus laevis, UniProt A0A1L8HZL0)
T1 sequence (A0A1L8HZL0 1-1133): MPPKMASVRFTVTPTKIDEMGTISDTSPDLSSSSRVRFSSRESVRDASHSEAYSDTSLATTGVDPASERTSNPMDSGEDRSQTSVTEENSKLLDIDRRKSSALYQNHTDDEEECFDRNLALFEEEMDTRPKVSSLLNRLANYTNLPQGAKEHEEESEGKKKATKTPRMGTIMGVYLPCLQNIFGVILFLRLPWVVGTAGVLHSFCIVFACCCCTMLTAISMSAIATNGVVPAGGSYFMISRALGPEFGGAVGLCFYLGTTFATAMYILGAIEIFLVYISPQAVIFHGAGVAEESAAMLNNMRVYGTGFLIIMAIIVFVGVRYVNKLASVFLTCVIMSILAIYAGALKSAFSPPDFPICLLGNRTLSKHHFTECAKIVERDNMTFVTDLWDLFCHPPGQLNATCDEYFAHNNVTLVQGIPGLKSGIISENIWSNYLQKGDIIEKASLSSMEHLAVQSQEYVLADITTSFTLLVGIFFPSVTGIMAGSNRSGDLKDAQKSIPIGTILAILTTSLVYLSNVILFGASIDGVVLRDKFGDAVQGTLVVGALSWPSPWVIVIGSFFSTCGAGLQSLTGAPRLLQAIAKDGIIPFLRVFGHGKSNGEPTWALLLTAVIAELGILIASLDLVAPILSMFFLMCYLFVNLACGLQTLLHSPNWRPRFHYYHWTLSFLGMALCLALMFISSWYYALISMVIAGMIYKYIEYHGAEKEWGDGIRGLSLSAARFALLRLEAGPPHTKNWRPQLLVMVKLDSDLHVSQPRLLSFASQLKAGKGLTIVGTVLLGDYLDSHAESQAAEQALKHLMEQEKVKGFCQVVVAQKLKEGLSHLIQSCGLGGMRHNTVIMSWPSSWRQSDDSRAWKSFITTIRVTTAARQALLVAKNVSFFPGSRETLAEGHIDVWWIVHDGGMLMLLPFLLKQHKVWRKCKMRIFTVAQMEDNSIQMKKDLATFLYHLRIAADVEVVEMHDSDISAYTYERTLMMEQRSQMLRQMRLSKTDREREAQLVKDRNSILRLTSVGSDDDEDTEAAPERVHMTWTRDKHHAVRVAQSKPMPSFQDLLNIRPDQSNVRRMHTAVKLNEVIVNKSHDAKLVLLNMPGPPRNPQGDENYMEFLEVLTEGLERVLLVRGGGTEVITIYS
Experiment: 86Rb+ uptake by the endogenous K+-Cl- cotransporter of water-injected Xenopus oocytes
Format: cell-based
Conditions: for Km: xKCC
Protocol: Oocytes were surgically collected from anesthetized female Xenopus adults under 0.17% tricaine and incubated for 1 hour with vigorous shaking in frog Ringer ND96 (96 mM sodium chloride, 2 mM potassium chloride, 1.8 mM calcium chloride, 1.0 mM magnesium chloride, and 5 mM Hepes/Tris, pH 7.4) in the presence of 2 mg/ml collagenase B. Oocytes were then washed four times in ND96, manually defolliculated, and incubated overnight in ND96 at 18° C. On the next day, defolliculated stage V–VI oocytes were injected with 50 nl of water or a solution containing cRNA at a concentration of 0.25–0.5 μg/μl (25 ng/oocyte). Oocytes were incubated at 17–18° C. in ND96 (96 mM sodium chloride, 2 mM potassium chloride, 1.8 mM calcium chloride, 1.0 mM magnesium chloride, and 5 mM Hepes/Tris, pH 7.4), supplemented with 2.5 mM sodium pyruvate and 5 mg/100 ml gentamicin, for 3–4 days. The incubation medium was changed every 24 hours. On the day of the experiment, oocytes were switched to Cl^−-free ND96 (96 mM Na^+ Na^+ isethionate, 2 mM K^+ gluconate, 6 mM Ca^2+ gluconate, 1 mM Mg^2+ gluconate, 5 mM Hepes, 2.5 mM sodium pyruvate, 5 mg/100 ml gentamicin, pH 7.4) for 2 hours prior to the uptake assay.
K^+—Cl^− cotransport was assessed by measuring tracer ^86Rb^+ uptake (NEN® Life Science Products of Boston, Mass.) in experimental groups of at least 15 oocytes. Since both KCC4 and KCC1 display minimal activity under isotonic conditions ^86Rb^+ uptake was generally assessed in oocytes swollen by a 30-minute incubation period in a hypotonic K^+ and Cl^−-free medium (50 mM N-methyl-D-glucamine (NMDG) gluconate, 4.6 mM Ca^2+ gluconate, 1.0 mM Mg^2+ gluconate, 5 mM Hepes, pH 7.4) with 1 mM ouabain, followed by a 60-minute uptake period in a hypotonic Na^+-free medium with variable K^+—Cl^− content. […] All uptake solutions also contained 1.8 mM CaCl2, 1 mM MgCl2, 5 mM Hepes, pH 7.4, and were supplemented with 1 mM ouabain and […] ^86Rb^+. […]
All uptake assays were performed at 32° C. […] Oocytes were dissolved in 10% SDS, and tracer activity was determined for each oocyte by β-scintillation counting.

In the case of `Cl` [Chloride], the Km (read-out: Chloride Km) is reported as 15.4 mM.
In the case of `CCN1C(=O)C=CC1=O` [NEM, N-ethylmaleimide], the “86Rb+ uptake due to endogenous oocyte K+-Cl- cotransporter” value (NEM, H2O-injected oocytes, both isotonic and hypotonic) is reported as “significantly increased”.
Work on `[K+]` [Potassium] yielded a Km (read-out: Potassium Km) of 27.7 mM.
